In patent publication US20240270673A1, “PROCESS AND SYSTEM FOR THE RECOVERY OF GLYOXYLIC ACID” (Avantium Knowledge Centre B.V., priority 2021, published 2024):

Assay: Low-temperature crystallization of oxalic acid from aqueous glyoxylic acid/oxalic acid solutions (Crystal16 parallel crystallizer), liquid phase concentration after equilibration
Format: physicochemical
Conditions: liquid phase after equilibration over night
From the text: Low-temperature crystallization experiments have been carried out on a series of solutions containing glyoxylic acid and oxalic acid at different concentrations.
Solutions containing glyoxylic acid and oxalic acid at different concentrations have been prepared and were cooled under controlled conditions in a Crystal16™ parallel crystallizer (Technobis Crystallization Systems). After reaching the set temperature the mixture as left to equilibrate over night after which a sample of the liquid phase was taken to determine the concentration of oxalic acid and glyoxylic acid after crystallization.

[1] = Entry 1, T setpoint 10 degree Celsius, at RT glyoxylic 150.4 gr/L, oxalic 58.8 gr/L
[2] = Entry 2, T setpoint 5 degree Celsius, at RT glyoxylic 150.4 gr/L, oxalic 58.8 gr/L
[3] = Entry 3, T setpoint 0 degree Celsius, at RT glyoxylic 150.4 gr/L, oxalic 58.8 gr/L
[4] = Entry 4, T setpoint −5 degree Celsius, at RT glyoxylic 150.4 gr/L, oxalic 58.8 gr/L
[5] = Entry 5, T setpoint 10 degree Celsius, at RT glyoxylic 310.6 gr/L, oxalic 44.1 gr/L
[6] = Entry 6, T setpoint 5 degree Celsius, at RT glyoxylic 310.6 gr/L, oxalic 44.1 gr/L
[7] = Entry 7, T setpoint 0 degree Celsius, at RT glyoxylic 310.6 gr/L, oxalic 44.1 gr/L
[8] = Entry 8, T setpoint −5 degree Celsius, at RT glyoxylic 566.8 gr/L, oxalic 29.5 gr/L

Row | SMILES | Glyoxylic concentration at setpoint [1] [gr/L] | Glyoxylic concentration at setpoint [2] [gr/L] | Glyoxylic concentration at setpoint [3] [gr/L] | Glyoxylic concentration at setpoint [4] [gr/L] | Glyoxylic concentration at setpoint [5] [gr/L] | Glyoxylic concentration at setpoint [6] [gr/L] | Glyoxylic concentration at setpoint [7] [gr/L] | Glyoxylic concentration at setpoint [8] [gr/L] | Oxalic concentration at setpoint [1] [gr/L] | Oxalic concentration at setpoint [2] [gr/L] | Oxalic concentration at setpoint [3] [gr/L] | Oxalic concentration at setpoint [4] [gr/L] | Oxalic concentration at setpoint [5] [gr/L] | Oxalic concentration at setpoint [6] [gr/L] | Oxalic concentration at setpoint [7] [gr/L] | Oxalic concentration at setpoint [8] [gr/L]
1 | O=CC(=O)O [glyoxylic acid, Glyoxylic acid] | 156.1 | 160.62 | 157.73 | 161.70 | 326.42 | 323.65 | 332.54 | 573.48 | – | – | – | – | – | – | – | –
2 | O=C(O)C(=O)O [oxalic acid] | – | – | – | – | – | – | – | – | 36.3 | 32.70 | 27.04 | 22.37 | 29.07 | 21.83 | 19.25 | 9.57
